Square brackets hold non-standard residues; d marks the D form. Peptide text beside a SMILES is read from it.
Experiments:
[1] = Stability of D-Trp and D-2-methyl-Trp in 1% solutions (HPLC peak area); format: physicochemical; details: pH 2.2 citrate buffer, dark, helium (FIG. 1), pH 5.4 acetate buffer, oxygen, constant light (FIG. 2)
GH release [2] = experiment: Released GH in ten day-rats, s.c. (Table 9); format: in vivo; details: 15 minutes
Experimental: In vivo activity of these compounds was determined in ten day-rats, which were subcutaneously injected (s.c.) with a dose of 300 μg/kg or with different doses in dose-response studies, according to the procedure as described in Deghenghi et. al, Life Sciences 54, 1321 (1994). The released GH was measured 15 minutes following compound administration.

[3] = tested on: pituitary cell monolayers; experiment: GH secretion of pituitary cell monolayers incubated with peptides; format: cell-based, rats; details: 2 hours incubation
Experimental: (§1) Male Sprague Dawley rats (Charles River, Calco, Italy) of 2-3 months of age were used. Rats were housed at 22 +2° C., with lighting cycle of 14 h light: 10 h dark (lights on from 06.00 to 20.00 h), at least 10 days before starting the experiments. A standard dry diet and water were available ad libitum.
Pituitary tissue used for cell dissociation included only the anterior lobe. Briefly, pituitary glands were collected in sterile F-10 medium and after cutting into small fragments incubated twice (30 minutes each) at 37° C. in F-10 medium containing 6% fetal calf serum and collagenase (2.5 mg/ml) (Boehringer, Mannheim GmbH, Germany). Fragments were then washed in Dulbecco's PBS, Ca^2 + and Mg^2 + free medium and mechanically dissociated. Single cell suspension was planted onto 24-well (2×10^5 cells/well) culture plates. The cells were incubated in F-10 medium supplemented with 10% horse serum, 4% fetal calf serum and gentamycin (25 μg/ml), in a humidified atmosphere of 5% CO2 and 95% air at 37° C.
After 3 days, the medium was removed and the cells washed twice with serum free F-10, then incubated with 1 ml of F-10 containing 0.1% BSA only, or with added various concentrations of synthetic peptides.
After incubation for 2 h at 37° C., media were collected and stored frozen at -20° C. until assayed for measurement of GH content.
(§2) Medium and plasma GH was measured by radioimmunoassay using materials supplied by the NIADDK Bethesda, Md. Values were expressed in term of NIASSK-rat-GH-RP-2 standard (potency 2 IU/ml), as ng/ml of medium or plasma.
(§3) The minimum detectable value of rat was 1.0 ng/ml; intra-assay variability was 6%. To avoid inter-assay variation, samples from each experiment were assayed simultaneously.

GH release [4] = experiment: Plasma GH after i.v. administration in male rats anesthetized with ketamine and xilazine; format: in vivo; details: 0 min (before injection)
Experimental: as §1
(§4) Between 09.00-10.00 h rats were anesthetized with ketamine (58 mg/kg, Inoketam, VIRBAC, Milano) and xilazine (12 mg/kg, Rompun, Bayer, Milano). Thirty minutes later, a blood sample ([…]) was withdrawn from the exposed jugular vein, peptides were injected intravenously or subcutaneously, and further blood samples were collected 10, 20 and 30 minutes later.
as §2, §3

GH release [5] = experiment: Plasma GH after s.c. administration in male rats anesthetized with ketamine and xilazine; format: in vivo; details: 0 min (before injection)
Experimental: as §1, §4, §2, §3

rat = experiment: Acute cardiovascular toxicity in the rat, single i.v. dose, mortality; format: in vivo; details: observed up to 4 hours
Experimental: These two peptides were also tested for acute cardiovascular toxicity in the rat.
Dosages were calculated on the basis of the declared peptide content in each product, as specified below:
A single dose of HEXARELIN or GHRP-6 was administered to rats in different calendar dates in such a way that each group/dose should be treated in two subsequent days.
For each compound, appropriate amounts of solutions in 0.9% NaCl for injection were prepared just before treatment at the suitable concentrations. The solutions were sterilized by filtration (Millipore filter, pore size 0.22 μm). Owing to the type of the study (acute study) in which formulates were administered just after preparation, stability checks were not performed. Concentration checks were also not performed. The volume of solution injected was maintained constant at 1 ml/Kg.
The intravenous injections were done as a single dose in one vein of the tail with an appropriately gauged sterile, disposable, plastic syringe. The injection rate was about 0.1 ml/sec.
Periodical observations were made up to 4 hours after treatment. Abnormality and mortality were recorded. Body weight was recorded once during pre-trial and on the administration day to calculate the volumes to be injected.

GH release [6] = experiment: GH response in conscious, freely-moving rats after antiserum pretreatment, i.v. 25 μg/kg; format: in vivo; details: 25 μg/kg i.v.
Experimental: Sixty male rats were prepared with indwelling venous catheters under ether anesthesia three days before experimentation. On the day of experimentation, all animals were given an iv heparin injection (100 IU; 0630 h). At 0700 h, animals were treated with 0.5 ml of either normal serum (control-as), somatostatin antiserum (somatostatin-as; 0.25 ml+0.25 ml saline), growth hormone-releasing hormone antiserum (GHRH-as; 0.25 ml+0.25 ml saline), or both somatostatin antiserum and growth hormone-releasing hormone antiserum (0.25 ml somatostatin-as+0.25 ml GHRH-as). Blood sampling began 60 minutes after antiserum pretreatment, with blood samples collected every 20 minutes for three hours. After the 180 minute sample (1100 h), animals were treated iv with 25 μg/kg of either Hexarelin or GHRP-6. Blood samples were then collected at 5, 10, 15, 20, 30, 40, and 60 minutes after peptide treatment. All samples were centrifuged immediately and the plasma frozen until assayed. The peak GH response to Hexarelin and GHRP-6 as well as the area under the response curves (AUCs) for the thirty minutes following peptide injection were calculated. Data were subjected to repeated measures analysis of variance and are expressed as mean±SEM.

adenylcyclase = experiment: Adenylcyclase activity in anterior pituitary gland cells; format: cell-based; details: anterior pituitary gland cells from rats weighing 150 g
[7] = 300 μg/kg s.c., GH control 10 to 31 ng/ml depending on experiment

## Cc1[nH]c2ccccc2c1C[C@@H](N)C(=O)O [substituted Trp, D-2-Methyl-Tryptophan]
[1]
  time stable in solution (HPLC peak area): ≥ 60 days

## imidazolylacetyl-D-Mrp-Ala-Trp-D-Phe-Lys-NH2
GH release [2]; [7]
  GH released: 159 ± 27 ng/mL

## C[C@H](NC(=O)[C@@H](Cc1c[nH]c2ccccc12)NC(=O)[C@@H](N)Cc1c[nH]cn1)C(=O)N[C@@H](Cc1c[nH]c2ccccc12)C(=O)N[C@H](Cc1ccccc1)C(=O)N[C@@H](CCCCN)C(N)=O [GHRP-6, His-D-Trp-Ala-Trp-D-Phe-Lys-NH2] (H-H[dW]AW[dF]K-NH2)
[3]; 10^-6 M
  GH-releasing activity: 510.0 ± 12.0 ng/well
[3]; 10^-7 M
  GH-releasing activity: 526.5 ± 19.0 ng/well
[3]; 10^-8 M
  GH-releasing activity: 544.2 ± 23.9 ng/well
GH release [4]; i.v. 150 μg/kg
  plasma GH: 30.2 ± 7.8 ng/mL
GH release [4]; i.v. 300 μg/kg
  plasma GH: 21.9 ± 4.4 ng/mL
GH release [4]; i.v. 600 μg/kg
  plasma GH: 21.2 ± 6.1 ng/mL
GH release [5]; s.c. 150 μg/kg
  plasma GH: 20.0 ± 5.0 ng/mL
GH release [5]; s.c. 300 μg/kg
  plasma GH: 20.0 ± 6.0 ng/mL
GH release [5]; s.c. 600 μg/kg
  plasma GH: 18.0 ± 4.0 ng/mL
rat; 2.5 mg/kg i.v. single dose
  Dead rats/Total No of rats per group: 0/6
rat; 5.0 mg/kg i.v. single dose
  Dead rats/Total No of rats per group: 1/6
rat; 7.5 mg/kg i.v. single dose
  Dead rats/Total No of rats per group: 2/6
GH release [6]; main peptide effect pooled over antiserum pretreatments
  Mean GH: 131 ± 13 ng/mL
GH release [6]; pooled over antiserum pretreatments
  Peak GH: 293 ± 41 ng/mL
GH release [6]; thirty minutes following injection, pooled over antiserum pretreatments
  GH AUC: 4220 ± 665 ng/ml/30 min
adenylcyclase
  adenylcyclase activity, increase compared with the baseline: inactive

## 4-(aminomethyl)cyclohexanecarbonyl-D-Mrp-D-Trp-Phe-Lys-NH^2
GH release [2]; [7]
  GH released: 111.8 ± 24.6 ng/mL

## N[C@H](Cc1c[nH]c2ccccc12)C(=O)O [unsubstituted Trp, D-Tryptophan, reference compound]
[1]
  time stable in solution (HPLC peak area): about 20 days

## D-Ala-D-Mrp-Ala-Trp-D-Phe-Lys-NH2 [D-Ala-D-Mrp--Ala--Trp-D-Phe--Lys--NH2]
GH release [2]; 40 μg/kg s.c., GH control 34 ± 1
  GH released: 200 ± 20 ng/mL
GH release [2]; 320 μg/kg s.c., GH control 34 ± 1
  GH released: 251 ± 32 ng/mL
adenylcyclase
  EC50: 0.23 nM
  adenylcyclase activity, increase compared with the baseline: 30%
